Laboratory results as given in patent US10287269B2, “Pyrazolyl pyrimidinone compounds as PDE2 inhibitors” (Merck Sharp & Dohme Corp., priority 2015, dated 2019).

The molecules below were run against T1, human PDE2A1 (Homo sapiens, UniProt O00408) (assay: PDE2 IMAP FP inhibition assay, human enzyme (PDE selectivity panel format)). Details: Lab A; read-out: Human PDE2 Ki (nM) Lab A.
T1 construct: GST; purchased BPS Bioscience (San Diego, Calif.) 60020; host or cells: insect cells
Type: biochemical
In short: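 GST-tagged human PDE2A1 from insect cells, run at room temperature in 10 mM Tris pH 7.2, 10 mM MgCl2, 1 mM DTT with 50 nM FAM-cAMP plus 1000 nM cGMP for 60 min. IMAP fluorescence polarization read-out; apparent Ki derived using apparent KM 10,000 nM.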

T1 sequence (O00408 1-920 isoform O00408-2): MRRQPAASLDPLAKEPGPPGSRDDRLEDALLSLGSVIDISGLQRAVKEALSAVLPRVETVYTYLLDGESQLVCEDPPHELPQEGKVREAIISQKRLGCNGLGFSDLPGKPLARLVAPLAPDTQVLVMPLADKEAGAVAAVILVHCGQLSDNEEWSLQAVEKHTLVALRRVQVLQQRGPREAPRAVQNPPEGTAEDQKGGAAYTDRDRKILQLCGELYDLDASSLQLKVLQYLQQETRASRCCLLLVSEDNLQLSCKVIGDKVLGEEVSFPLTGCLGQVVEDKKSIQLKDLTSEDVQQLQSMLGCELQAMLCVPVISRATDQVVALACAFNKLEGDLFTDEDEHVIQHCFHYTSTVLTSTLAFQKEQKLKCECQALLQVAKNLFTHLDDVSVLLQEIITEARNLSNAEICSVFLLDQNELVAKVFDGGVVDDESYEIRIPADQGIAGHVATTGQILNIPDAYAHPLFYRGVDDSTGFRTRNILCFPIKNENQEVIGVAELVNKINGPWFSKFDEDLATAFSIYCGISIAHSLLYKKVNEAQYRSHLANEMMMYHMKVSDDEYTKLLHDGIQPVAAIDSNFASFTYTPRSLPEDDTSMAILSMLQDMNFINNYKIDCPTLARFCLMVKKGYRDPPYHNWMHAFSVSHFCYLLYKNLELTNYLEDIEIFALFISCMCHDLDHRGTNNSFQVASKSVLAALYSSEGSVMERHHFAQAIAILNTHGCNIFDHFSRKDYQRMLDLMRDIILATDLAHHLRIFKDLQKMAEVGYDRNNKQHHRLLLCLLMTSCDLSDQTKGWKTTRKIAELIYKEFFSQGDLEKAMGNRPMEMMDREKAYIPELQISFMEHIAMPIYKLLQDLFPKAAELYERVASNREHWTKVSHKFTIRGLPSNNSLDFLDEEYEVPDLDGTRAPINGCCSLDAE

| Compound | Ki [nM] |
| --- | --- |
| CC(C)c1nc(-c2cnn(C(C)c3ccc(C(F)(F)F)cc3F)c2)cc(=O)[nH]1 (stereo not shown) [Example 9, 6-(1-(1-(2-Fluoro-4-(trifluoromethyl)phenyl)ethyl)-1H-pyrazol-4-yl)-2-isopropylpyrimidin-4(3H)-one] | 104 |
| CC(c1ccc(C(F)(F)F)cc1F)n1cc(-c2cc(=O)[nH]c(C3CC3)n2)cn1 (stereo not shown) [Example 10] | 19.5 |
| CCC(c1ccc(C(F)(F)F)cc1F)n1cc(-c2cc(=O)[nH]c(C)n2)cn1 (stereo not shown) [Example 33, 6-(1-(1-(2-fluoro-4-(trifluoromethyl)phenyl)propyl)-1H-pyrazol-4-yl)-2-methylpyrimidin-4(3H)-one] | 32 |
| Cc1nc(-c2cnn(C(c3ccc(C(F)(F)F)cc3F)C(C)C)c2)cc(=O)[nH]1 (stereo not shown) [Example 34, 6-(1-(1-(2-fluoro-4-(trifluoromethyl)phenyl)-2-methylpropyl)-1H-pyrazol-4-yl)-2-methylpynmidin-4(3H)-one] | 44.6 |
| CC(c1ccc(C(F)(F)F)cc1F)n1cc(-c2cc(=O)[nH]c(Cc3ccccc3)n2)cn1 (stereo not shown) [Example 35, 2-benzyl-6-(1-(1-(2-fluoro-4-(trifluoromethyl)phenyl)ethyl)-1H-pyrazol-4-yl)pyrimidin-4(3H)-one] | 60.4 |
| CCc1nc(-c2cnn(C(C)c3ccc(C(F)(F)F)cc3F)c2)cc(=O)[nH]1 (stereo not shown) [Example 36, 2-ethyl-6-(1-(1-(2-fluoro-4-(trifluoromethyl)phenyl)ethyl)-1H-pyrazol-4-yl)pyrimidin-4(3H)-one] | 17.2 |
| Cc1nc(-c2cnn(C3(c4ccc(C(F)(F)F)cc4F)CCC3)c2)cc(=O)[nH]1 [Example 37, 6-(1-(1-(2-fluoro-4-(trifluoromethyl)phenyl)cyclobutyl)-1H-pyrazol-4-yl)-2-methylpyrimidin-4(3H)-one] | 7.9 |

The next lines start with the values.

| Ki [nM] | Compound |
| --- | --- |
| 3.3 | COc1ccc(Cc2nc(-c3cnn(C(C)c4ccc(C(F)(F)F)cc4F)c3)cc(=O)[nH]2)cc1F (single isomer, unassigned) [Example 147, (S)- or (R)-6-(1-(1-(2-fluoro-4-(trifluoromethyl)phenyl)ethyl)-1H-pyrazol-4-yl)-2-(3-fluoro-4-methoxybenzyl)pyrimidin-4(3H)-one] |
| 61 | Cc1ccc(C(C)n2cc(-c3cc(=O)[nH]c(C)n3)cn2)c(Cl)c1 (single isomer, unassigned) [Example 148, (R)- or (S)-6-(1-(1-(2-chloro-4-methylphenyl)ethyl)-1H-pyrazol-4-yl)-2-methylpyrimidin-4(3H)-one] |
| 1 | COc1ccc(Cc2nc(-n3cc(C(C)c4ccc(C(F)(F)F)cc4)cn3)cc(=O)[nH]2)cc1OC (stereo not shown) [Example 137, 2-(3,4-dimethoxybenzyl)-6-(4-(1-(4-(trifluoromethyl)phenyl)ethyl)-1H-pyrazol-1-yl)pyrimidin-4(3H)-one] |
| 1240 | Cc1ccc(C(C)n2cc(-c3cc(=O)[nH]c(C)n3)cn2)cc1 (stereo not shown) [Example 153, 2-methyl-6-(1-(1-(p-tolyl)ethyl)-1H-pyrazol-4-yl)pyrimidin-4(3H)-one] |

Same assay, conditions: Lab B; read-out: Human PDE2 Ki (nM) Lab B

| Compound | Ki [nM] |
| --- | --- |
| Cc1nc(-c2cnn(Cc3ccc(OC(F)(F)F)cc3)c2)cc(=O)[nH]1 [Example 29, 2-Methyl-6-(1-(4-(trifluoromethoxy)benzyl)-1H-pyrazol-4-yl)pyrimidin-4(3H)-one] | 829 |
| Cc1nc(-n2cc(Cc3ccc(OC(F)(F)F)cc3)cn2)cc(=O)[nH]1 [Example 30, 2-Methyl-6-(4-(4-(trifluoromethoxy)benzyl)-1H-pyrazol-1-yl)pyrimidin-4(3H)-one] | 1110 |
| Cc1nc(-n2cc(C(C)c3ccc(C4CC4)cc3)cn2)cc(=O)[nH]1 (stereo not shown) [Example 39, 6-(4-(1-(4-cyclopropylphenyl)ethyl)-1H-pyrazol-1-yl)-2-methylpyrimidin-4(3H)-one] | 35.3 |
| Cc1nc(-n2cc(C(C)c3ccc(C4(C)CC4)cc3)cn2)cc(=O)[nH]1 (stereo not shown) [Example 40, 2-methyl-6-(4-(1-(4-(1-methylcyclopropyl)phenyl)ethyl)-1H-pyrazol-1-yl)pyrimidin-4(3H)-one] | 197 |
| Cc1nc(-n2cc(Cc3ccc(C(F)(F)F)cc3)cn2)cc(=O)[nH]1 [Example 48, 2-methyl-6-(4-(4-(trifluoromethyl)benzyl)-1H-pyrazol-1-yl)pyrimidin-4(3H)-one] | 219 |

More lines, now with the values ahead:

| Ki [nM] | Compound |
| --- | --- |
| 140 | Cc1nc(-c2cn(C(C)c3ccc(C(F)(F)F)cc3)nc2C)cc(=O)[nH]1 (stereo not shown) [Example 80, 2-methyl-6-(3-methyl-1-(1-(4-(trifluoromethyl)phenyl)ethyl)-1H-pyrazol-4-yl)pyrimidin-4(3H)-one] |
| 233 | Cc1nc(-c2cnn(C(C)c3ccc(C(F)(F)F)cc3)c2)cc(=O)[nH]1 (stereo not shown) [Example 126, 2-methyl-6-(1-(1-(4-(trifluoromethyl)phenyl)ethyl)-1H-pyrazol-4-yl)pyrimidin-4(3H)-one] |
| 141 | CCC(c1ccc(C(F)(F)F)cc1)c1cnn(-c2cc(=O)[nH]c(C)n2)c1 (stereo not shown) [Example 129, 2-methyl-6-(4-(1-(4-(trifluoromethyl)phenyl)propyl)-1H-pyrazol-1-yl)pyrimidin-4(3H)-one] |
| 87.6 | Cc1nc(-n2cc(C(c3ccc(C(F)(F)F)cc3)C(C)C)cn2)cc(=O)[nH]1 (stereo not shown) [Example 130] |
| 0.4 | COc1ccc(Cc2nc(-n3cc(C(C)c4ccc(C(F)(F)F)cc4)cn3)cc(=O)[nH]2)cc1OC (stereo not shown) [Example 137, 2-(3,4-dimethoxybenzyl)-6-(4-(1-(4-(trifluoromethyl)phenyl)ethyl)-1H-pyrazol-1-yl)pyrimidin-4(3H)-one] |
| 265 | CCCC(c1ccc(C(F)(F)F)cc1)n1cc(-c2cc(=O)[nH]c(C)n2)cn1 (stereo not shown) [Example 154, 2-methyl-6-(1-(1-(4-(trifluoromethyl)phenyl)butyl)-1H-pyrazol-4-yl)pynmidin-4(3H)-one] |
